One data set concerns the target T1, human FAK (Homo sapiens, UniProt Q05397).
T1 construct: The complete human FAK cDNA, whose N-terminal end was labelled with histidine, was cloned into a baculovirus expression vector pFastBac HTc; made in house
Kind of data set: FAK autophosphorylation inhibition, time-resolved fluorescence test (HTRF). To be noted: 15 μM ATP, 1 hour at 37° C.; read-out: FAK IC 50. The data set is classed as biochemical. As to the method:
The inhibitory activity of the compounds on FAK is determined by a measurement of the inhibition of the autophosphorylation of the enzyme using a time-resolved fluorescence test (HTRF).
The complete human FAK cDNA, whose N-terminal end was labelled with histidine, was cloned into a baculovirus expression vector pFastBac HTc. The protein was expressed and purified at about 70% homogeneity.
The kinase activity is determined by incubating the enzyme (6.6 μg/ml) with various concentrations of test compound in a 50 mM Hepes buffer, pH=7.2, containing 10 mM MgCl2, 100 μM Na3VO4, 15 μM ATP for 1 hour at 37° C. The enzymatic reaction is stopped by adding Hepes buffer, pH=7.0, containing 0.4 mM KF, 133 mM EDTA, 0.1% BSA and the labelling is carried out, for 1 to 2 hours at room temperature, by adding to this buffer an anti-histidine antibody labelled with XL665 and a monoclonal antibody phospho-specific for tyrosine, conjugated with europium cryptate (Eu-K). The characteristics of the two fluorophores are available in G. Mathis et al., Anticancer Research, 1997, 17, pages 3011-3014. The energy transfer between the excited europium cryptate to the acceptor XL665 is proportional to the degree of autophosphorylation of FAK. The signal of long duration specific for XL-665 is measured in a Packard Discovery plate counter. All the assays are performed in duplicate and the mean of the two assays is calculated. The inhibition of the FAK autophosphorylation activity with compounds of the invention is expressed as a percentage inhibition relative to a control whose activity is measured in the absence of test compound. For the calculation of the % inhibition, the [signal at 665 nm/signal at 620 nm] ratio is considered.

Data set [1] concerns the target T2, human KDR enzyme (cytoplasmic domain, GST fusion) (Homo sapiens, UniProt P35968).
T2 construct: The cytoplasmic domain of the human KDR enzyme was cloned in a GST fusion form; GST; made in house; host or cells: SF21 insect cells (baculovirus)
The data set is described as follows: Phosphorylation of substrate by the KDR enzyme in vitro, scintillation technique. It counts as biochemical. To be noted: 2 μM cold ATP, PLCγ SH2-SH3 substrate, 1 hour at 37° C.; read-out: KDR IC 50. As to the method:
The inhibitory effect of the compounds is determined in a test of phosphorylation of substrate by the KDR enzyme in vitro by a scintillation technique (96-well plate, NEN).
The cytoplasmic domain of the human KDR enzyme was cloned in a GST fusion form into the baculovirus expression vector pFastBac. The protein was expressed in SF21 cells and purified to about 60% homogeneity.
The kinase activity of KDR is measured in 20 mM MOPS, 10 mM MgCl2, 10 mM MnCl2, 1 mM DTT, 2.5 mM EGTA, 10 mM b-glycerophosphate, pH=7.2, in the presence of 10 mM MgCl2, 100 μM Na3VO4, 1 mM NaF. 10 μl of the compound are added to 70 μl of kinase buffer containing 100 ng of KDR enzyme at 4° C. The reaction is initiated by adding 20 μl of solution containing 2 μg of substrate (SH2—SH3 fragment of PLCγ expressed in the form of a GST fusion protein), 2 μCi γ ^33P[ATP] and 2 μM cold ATP. After incubating for 1 hour at 37° C., the reaction is stopped by adding 1 volume (100 μl) of 200 mM EDTA. The incubation buffer is removed and the wells are washed three times with 300 μl of PBS. The radioactivity is measured in each well using a Top Count NXT (Packard) radioactivity counter.
The background noise is determined by measuring the radioactivity in four different wells containing radioactive ATP and the substrate alone.
A control for total activity is measured in four different wells all containing the reagents (γ^33P-[ATP], KDR and PLCγ substrate) but in the absence of compound.
The inhibition of the KDR activity with the compound of the invention is expressed as percentage inhibition of the control activity determined in the absence of compound.
The compound SU5614 (Calbiochem) (1 μM) is included in each plate as control for inhibition.

Data set [2] has as its target T3, human Tie2 (intracellular domain 776-1124, GST fusion) (Homo sapiens, UniProt Q02763).
T3 construct: the amino acids of the intracellular domain 776-1124; made in house
Kind of data set: Phosphorylation of PLC by Tie2 (GST-Tie2), FlashPlate radioactivity test. It counts as biochemical. To be noted: 2 μM cold ATP, GST-PLC substrate, 1 hour at 37° C.; read-out: TEI2 IC 50. As to the method:
The coding sequence for human Tie2 corresponding to the amino acids of the intracellular domain 776-1124 was generated by PCR using the cDNA isolated from human placenta as model. This sequence was introduced into a baculovirus expression vector pFastBacGT in the form of a GST fusion protein.
The inhibitory effect of the molecules is determined in a test of phosphorylation of PLC by Tie2 in the presence of GST-Tie2 purified to about 80% homogeneity. The substrate is composed of the SH2—SH3 fragments of PLC expressed in the form of the GST fusion protein.
The kinase activity of Tie2 is measured in a 20 mM MOPS buffer, pH 7.2, containing 10 mM MgCl2, 10 mM MnCl2, 1 mM DTT, 10 mM glycero-phosphate. A reaction mixture composed of 70 μl of kinase buffer containing 100 ng of GST-Tie2 enzyme per well is deposited in a FlashPlate 96-well plate kept on ice. 10 μl of the test molecule diluted in DMSO to a concentration of 10% maximum are then added. For a given concentration, each measurement is carried out in quadruplicate. The reaction is initiated by adding 20 μl of solution containing 2 μg of GST-PLC, 2 μM of cold ATP and 1 μCi of d′^33P[ATP]. After incubating for 1 hour at 37° C., the reaction is stopped by adding 1 volume (100 μl) of EDTA at 200 mM. After removing the incubation buffer, the wells are washed three times with 300 μl of PBS. The radioactivity is measured on a Wallac MicroBeta1450.
The inhibition of the Tie2 activity is calculated and expressed as a percentage inhibition relative to the control activity determined in the absence of compound.

SMILES strings stand for the structures.

T1 sequence (Q05397 whole entry): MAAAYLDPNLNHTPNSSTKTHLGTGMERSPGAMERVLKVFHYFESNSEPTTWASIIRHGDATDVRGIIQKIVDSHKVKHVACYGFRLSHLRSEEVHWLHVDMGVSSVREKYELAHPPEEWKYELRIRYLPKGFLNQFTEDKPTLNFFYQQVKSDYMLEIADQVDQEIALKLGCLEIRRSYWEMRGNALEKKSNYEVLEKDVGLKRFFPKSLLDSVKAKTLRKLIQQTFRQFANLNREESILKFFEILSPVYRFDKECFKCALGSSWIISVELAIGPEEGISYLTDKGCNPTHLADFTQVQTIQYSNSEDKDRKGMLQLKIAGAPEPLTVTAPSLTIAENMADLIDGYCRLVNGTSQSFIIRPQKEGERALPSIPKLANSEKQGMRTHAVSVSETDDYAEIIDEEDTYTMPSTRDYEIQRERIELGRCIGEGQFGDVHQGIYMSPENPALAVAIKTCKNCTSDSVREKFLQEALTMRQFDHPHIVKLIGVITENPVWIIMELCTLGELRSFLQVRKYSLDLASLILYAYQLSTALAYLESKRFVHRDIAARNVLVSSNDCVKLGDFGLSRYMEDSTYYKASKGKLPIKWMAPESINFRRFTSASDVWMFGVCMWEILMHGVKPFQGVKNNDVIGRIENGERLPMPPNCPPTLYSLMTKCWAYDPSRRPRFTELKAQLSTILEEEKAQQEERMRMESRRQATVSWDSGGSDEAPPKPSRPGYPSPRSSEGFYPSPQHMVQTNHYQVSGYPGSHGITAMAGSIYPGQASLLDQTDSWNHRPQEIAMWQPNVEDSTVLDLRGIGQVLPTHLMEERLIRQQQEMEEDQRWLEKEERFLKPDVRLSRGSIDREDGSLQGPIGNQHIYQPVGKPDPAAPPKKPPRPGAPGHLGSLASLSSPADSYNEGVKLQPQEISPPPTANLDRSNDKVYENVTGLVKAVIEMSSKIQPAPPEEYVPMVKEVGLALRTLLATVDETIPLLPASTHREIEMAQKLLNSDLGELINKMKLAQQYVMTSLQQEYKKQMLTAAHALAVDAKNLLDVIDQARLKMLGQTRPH
T3 sequence (Q02763 776-1124): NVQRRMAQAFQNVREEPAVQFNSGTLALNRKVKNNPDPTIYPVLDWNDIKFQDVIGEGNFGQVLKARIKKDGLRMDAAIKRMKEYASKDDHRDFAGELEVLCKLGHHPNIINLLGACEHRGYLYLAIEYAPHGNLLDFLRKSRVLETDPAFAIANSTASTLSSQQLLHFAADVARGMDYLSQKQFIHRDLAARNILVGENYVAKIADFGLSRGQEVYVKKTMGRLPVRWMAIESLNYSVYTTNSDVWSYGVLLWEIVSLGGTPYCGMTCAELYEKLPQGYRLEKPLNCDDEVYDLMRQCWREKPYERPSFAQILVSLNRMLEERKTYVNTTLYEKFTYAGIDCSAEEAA
T2 sequence (P35968 786-1356 limits assumed): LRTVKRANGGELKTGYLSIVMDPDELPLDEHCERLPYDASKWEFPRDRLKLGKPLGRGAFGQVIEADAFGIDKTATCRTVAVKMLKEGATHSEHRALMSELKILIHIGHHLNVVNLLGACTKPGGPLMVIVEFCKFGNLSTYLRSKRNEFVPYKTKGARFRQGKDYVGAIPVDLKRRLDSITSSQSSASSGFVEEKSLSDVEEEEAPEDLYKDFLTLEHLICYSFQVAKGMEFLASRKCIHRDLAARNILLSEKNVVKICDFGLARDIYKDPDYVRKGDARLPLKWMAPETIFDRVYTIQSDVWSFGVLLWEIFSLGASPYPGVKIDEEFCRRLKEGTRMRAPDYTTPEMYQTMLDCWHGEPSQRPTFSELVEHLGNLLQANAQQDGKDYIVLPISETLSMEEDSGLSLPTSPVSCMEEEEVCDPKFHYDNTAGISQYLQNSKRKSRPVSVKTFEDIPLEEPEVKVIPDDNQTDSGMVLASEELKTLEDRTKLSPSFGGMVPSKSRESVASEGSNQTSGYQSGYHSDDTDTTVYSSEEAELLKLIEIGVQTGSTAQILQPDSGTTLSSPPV

Consider `NC(=O)c1c[nH]cc1-c1ccc(NC(=O)Nc2cc(C(F)(F)F)ccc2F)cc1` [Example 1, 4-{4-[3-(2-Fluoro-5-trifluoromethylphenyl)ureido]phenyl}-1H-pyrrole-3-carboxamide], for which the IC50 on human FAK stood at 2060 nM; in data set [1] it was 6470 nM; in data set [2], 69 nM.
With `CC(=O)Nc1[nH]cc(-c2ccc(NC(=O)Nc3ccc(OC(F)(F)F)cc3)cc2)c1C(N)=O` [Example 21, 2-Acetylamino-4-{4-[3-(4-trifluoromethoxyphenyl)ureido]phenyl}-1H-pyrrole-3-carboxamide], the IC50 on human FAK was determined as 163 nM; in data set [1] it was 19 nM; in data set [2], 118 nM.
Regarding `CC(=O)Nc1[nH]cc(-c2ccc(NC(=O)Nc3ccc(C)c(C)c3)cc2)c1C(N)=O` [Example 19, 2-Acetylamino-4-{4-[3-(3,4-dimethylphenyl)ureido]phenyl}-1H-pyrrole-3-carboxamide], the results for the IC50 (on human FAK; in data set [1]; in data set [2]) were 717 nM, 13 nM and 125 nM, respectively.
On to `CCCC(=O)Nc1[nH]cc(-c2ccc(NC(=O)Nc3cc(C(F)(F)F)ccc3F)cc2)c1C(N)=O` [Example 5, 2-Butyrylamino-4-{4-[3-(2-fluoro-5-trifluoromethylphenyl)ureido]phenyl}-1H-pyrrole-3-carboxamide], for which the values for the IC50 (at human FAK; in data set [1]; in data set [2]) were 266 nM, 42 nM and 11 nM, respectively.
In the case of `CC(=O)Nc1[nH]cc(-c2ccc(NC(=O)Nc3ccc(C)c(C(F)(F)F)c3)cc2)c1C(N)=O` [Example 40, 2-Acetylamino-4-{4-[3-(4-methyl-3-trifluoromethylphenyl)ureido]phenyl}-1H-pyrrole-3-carboxamide], the melting point worked out at 266 °C.
